Values quoted from earlier work, collected in patent US20090130200A1, “GRANULES FOR CONTROLLED RELEASE OF TAMSULOSIN” (SIEGFRIED GENERICS INTERNATIONAL AG, priority 2004, published 2009).
Structures can show the parent of a compound that is named as a salt.

solubility in water: only slightly soluble in water
SMILES: CCOc1ccccc1OCCN[C@H](C)Cc1ccc(OC)c(S(N)(=O)=O)c1 [Tamsulosin hydrochloride]
